Data reported in article PMC5381078, “Carboxylate derivatives of tributyltin (IV) complexes as anticancer and antileishmanial agents” (DARU Journal of Pharmaceutical Sciences, 2017).
≈ marks a conversion by molar mass, not a printed value. Numbered stars: 1 amine (or outer) side, 2 acyl side, 3 side chain; on linkers, the order of the positions; unused ones are H or OH. Bridge positions count the residues as written; N and C are the ends. Square brackets hold non-standard residues; d marks the D form. Peptide text beside a SMILES is read from it. X1 = CC(C)CCCCCCCCC[C@H](CC(=O)[*:1])O[*:2]

Tests used:
HepG2 cell line = test: Cytotoxicity against HepG2 cell line (SRB assay); assay type: cell-based, human; conditions: for HepG2 % growth inhibition: 20 μg/mL
Procedure: Cytotoxicity was further evaluated against HepG2 cell line by sulforhodamine B (SRB) colorimetric assay. Dulbecco's Modified Eagle Medium (DMEM) supplemented with 10% FBS, 100 μg/mL streptomycin sulfate, 100 IU/mL penicillin G sodium and 0.25 μg/mL amphotericin B was used to culture HepG2 cells in CO2 (5%) incubator (Panasonic, Japan MCO-18 AC-PE) at 37 °C. An aliquot of 20 μL (1% DMSO in PBS) of samples was added to 180 μL of cell culture at an assay density of 1x10^5 cells/mL in 96-well plate. The plate was incubated at 37 °C for 72 h in CO2 incubator. Final concentration of compounds/standard was 20 μg/mL. Doxorubicin and 1% v/v DMSO in PBS ere used as positive and negative controls respectively. An equivalent number of cells in twelve wells of 96-well plate were incubated for 1 h at 37 °C and labeled as day zero control. Later, cells were fixed by adding 50 μL of cold 20% w/v TCA for 1 h at 4 °C. These were washed with tap water, air dried and stained with 50 μL of 0.057% w/v SRB in 1% v/v acetic acid for 30 min at room temperature. Cells were again washed with 1% v/v acetic acid, dried overnight and 200 μL of 10 mM Tris base (pH 10) was used to solubilize the bound dye for 1 h. Absorbance was measured at 515 nm using a microplate reader. Percentage of growth inhibition was calculated as: % inhibition = 100 – [(As – Ao) / (An – Ao) × 100], where, Ao, As and An are absorbance of day zero control, samples and negative control respectively. IC50 values were determined using 3-fold dilutions of the samples.

THP-1 cell line = test: Cytotoxicity against THP-1 cell line (MTT assay); assay type: cell-based, human; conditions: 72 h; for THP-1 % growth inhibition: 20 μg/mL
Procedure: Cytotoxicity of tributyltin (IV) compounds against THP-1 cell line was determined by 3-(4,5-dimethylthiazol-2-yl)-2,5-diphenyl tetrazolium bromide (MTT) assay. THP-1 cells were cultured in complete growth medium comprising RPMI-1640 (pH 7.4) supplemented with 2.2 g/L NaHCO3 and 10% v/v heat inactivated fetal bovine serum (HIFBS). An aliquot of 20 μL of samples in 1% DMSO in PBS and 180 μL of THP-1 cells were mixed in 96-well plate. Cells were added at an assay density of 1 × 10^4 cells/mL whereas sample/standard was added to achieve the final concentration of 20 μg/mL. The plate was incubated at 37 °C for 72 h in humidified 5% carbon dioxide incubator (Panasonic, Japan MCO-18 AC-PE). Vincristine and 1% DMSO in PBS were used as positive and negative controls respectively. After incubation, 20 μL of pre-filter sterilized MTT solution (4 mg/mL in distilled water) was added in plates and incubated for 4 h at 37 °C in CO2 incubator. Later, colored formazan crystals were separated by removing supernatant and dissolved in 100 μL of DMSO. Reaction was allowed to stand for 1 h to ensure complete dissolution and absorbance was measured at 540 nm using microplate reader (Biotech USA, Elx 800).

isolated lymphocytes = test: Cytotoxicity against isolated lymphocytes (MTT assay); assay type: cell-based, human; conditions: 24 h
Procedure: Lymphocytes were isolated using previously described protocol with some modifications. Informed consent was obtained from volunteers and procedure was conducted according to international ethical guidelines after gaining approval from the ethical committee of the Quaid-i-Azam University. A volume of 3 mL of blood was obtained from a healthy donor by venipuncture and diluted (1:1) with PBS. It was layered over 2 mL Histopaque-1077 and centrifuged at 800 × g for 20 min. The buffy coat was aspirated into 5 mL of PBS and centrifuged at […] for 4 min to pellet the lymphocytes. The pellet was suspended in 1 mL of RPMI-1640 and cell density was adjusted to get 1 × 10^5 cells/mL. For cytotoxicity determination, 20 μL of samples (20 μg/mL) or vincristine or 1% DMSO in PBS and 180 μL of lymphocyte suspension were incubated in 96-well plate at 37 °C for 24 h in humidified 5% carbon dioxide incubator (Panasonic, Japan MCO-18 AC-PE). Phytohaemagglutinin (PHA) was added in medium to stimulate lymphocyte growth. Afterwards, MTT assay was done as described above. IC50 values were determined using 3-fold dilutions of the samples.

[1] = tested on: promastigotes of Leishmania tropica kwh 23; test: Antileishmanial activity (MTT assay); assay type: cell-based; conditions: 72 h; for Antileishmanial % growth inhibition (mortality, lethality): 20 μg/mL; for Antileishmanial LC50: MTT
Procedure: Antileishmanial activity against the promastigotes of Leishmania tropica kwh 23 was evaluated by a quantitative colorimetric assay using 3-(4,5-dimethylthiazol-2-yl)-2, 5-diphenyl tetrazolium bromide (MTT) with minor modifications. […] […] Negative control wells contained 1% DMSO in PBS. All samples were run in triplicate. Afterwards, plates were incubated for 4 h at 24 °C with 20 μL of MTT (4 mg/mL in distilled water) to determine the cell viability. Supernatant from each well was carefully removed leaving behind formazan crystals. Colored formazan crystals were dissolved in 100 μL of DMSO by setting those aside for 1 h to ensure complete dissolution. Cell viability was estimated by measuring absorbance at 540 nm using microplate reader and percentage growth inhibition was calculated.

[2] = tested on: Leishmania tropica kwh 23 promastigotes; test: Photosensitizing effect against leishmania; assay type: cell-based; conditions: for Photosensitizing effect % growth inhibition, Sunlight with IR filter: 15 min; for Photosensitizing effect % growth inhibition, Sunlight: 15 min sunlight
Procedure: Photosensitizing effect of tributyltin (IV) compounds was determined in three parallel groups. Samples and controls were exposed for 15 min to sunlight (168 W/m^2 of sun intensity) or sunlight with IR filter or dark conditions. The relative intensity of sunlight was measured by a CCD spectrometer (Ocean Optics, model HR4000). Later, plates were incubated at 25 °C for 72 h and cell viability was determined by MTT assay as given above. In this assay, samples were tested at concentrations showing less than 55% inhibition in primary antileishmanial assay to exclude false positive.

Streptomyces 85E = test: Protein kinase inhibition assay (Streptomyces disc assay); assay type: cell-based; conditions: for MIC for PK inhibition: minimum inhibitory concentration
Procedure: Protein kinase inhibitory activity of the tributyltin (IV) compounds was measured against Streptomyces 85E strain using previously described protocol. Culture of Streptomyces 85E was refreshed in tryptic soy broth and 100 μL of this was swabbed on sterile ISP4 medium under aseptic conditions. […] Diameter (mm) of zone of inhibition (ZOI) around all samples and controls was measured as clear zone (CZ) and bald zone (BZ). […] BZ is indicative of PK inhibition.

[3] = 6.25 μg/disc, BZ indicative of PK inhibition
[4] = 50 μg/disc, BZ indicative of PK inhibition, (-) shows no ZOI

Row | SMILES | HepG2 % growth inhibition (HepG2 cell line; 72 h) [%] | HepG2 IC50 (HepG2 cell line; 72 h, 3-fold dilutions) [µg/mL] | Antileishmanial % growth inhibition (mortality, lethality) [1] [%] | Antileishmanial LC50 [1] [µg/mL] | ZOI BZ (bald zone) (Streptomyces 85E; [3]) [mm] | ZOI CZ (clear zone) (Streptomyces 85E; 50 μg/disc, (-) shows no ZOI) [mm] | MIC for PK inhibition (Streptomyces 85E) [μg/disc] | Photosensitizing effect % growth inhibition, Control ([2]; 0.092 μg/mL) [%] | Photosensitizing effect % growth inhibition, Dark ([2]; 0.092 μg/mL) [%] | Photosensitizing effect % growth inhibition, Sunlight with IR filter ([2]; 0.092 μg/mL) [%] | Photosensitizing effect % growth inhibition, Sunlight ([2]; 0.092 μg/mL) [%] | also measured
1 | CCC[CH2][Sn]([CH2]CCC)([CH2]CCC)[O]C(=O)COc1ccc(OCC(=O)[O][Sn]([CH2]CCC)([CH2]CCC)[CH2]CCC)cc1 [Ch-409, bis(tributylstannyl) 2,2’-(1,4-phenylenebis(oxy))diacetate] | 99.5 ± 3.15 | 0.08 ± 0.001 | 97.5 ± 1.98 | 0.954 ± 0.158 | 30 ± 1.17 | 30 ± 1.75 | 0.781 ± 0.002 | – | – | – | – | THP-1 % growth inhibition (THP-1 cell line): 19.4 ± 1.41%; Isolated lymphocytes IC50 (isolated lymphocytes): 15.18 ± 0.75ǂ μg/mL; Photosensitizing effect % growth inhibition, Control ([2]; 0.55 μg/mL): 52.05 ± 1.98%; Photosensitizing effect % growth inhibition, Dark ([2]; 0.55 μg/mL): 56.9 ± 0.02%; Photosensitizing effect % growth inhibition, Sunlight with IR filter ([2]; 0.55 μg/mL): 47.5 ± 1.56%; Photosensitizing effect % growth inhibition, Sunlight ([2]; 0.55 μg/mL): 57.63 ± 1.99%; ZOI CZ (clear zone) (Streptomyces 85E; 6.25 μg/disc, (-) shows no ZOI): 12 ± 0.19 mm; ZOI BZ (bald zone) (Streptomyces 85E; [4]): 31 ± 1.5 mm
2 | CCC[CH2][Sn]([CH2]CCC)([CH2]CCC)[O]C(=O)/C=C\C(=O)Nc1ccc(C(=O)OCC)cc1 [Ch-431, ethyl (Z)-4-(4-oxo-4-((tributylstannyl)oxy)but-2-enamido)benzoate] | 96.2 ± 2.23 | 5.48 ± 0.16 | 97.5 ± 2.75 | 0.078 ± 0.002 | 26 ± 0.16 | 31 ± 0.78 | 0.049 ± 0.002 | 50.7 ± 1.25 | 51.5 ± 1.35 | 47.5 ± 0.99 | 53.2 ± 1.55 | THP-1 % growth inhibition (THP-1 cell line): 42.7 ± 1.13%; Isolated lymphocytes % growth inhibition (isolated lymphocytes; 20 μg/mL): 10.7 ± 1.17ǂ %; ZOI CZ (clear zone) (Streptomyces 85E; 6.25 μg/disc, (-) shows no ZOI): 10 ± 0.33 mm; ZOI BZ (bald zone) (Streptomyces 85E; [4]): 33 ± 1.15 mm
3 | CCC[CH2][Sn]([CH2]CCC)([CH2]CCC)[O]C(=O)c1ccccc1C(=O)Nc1cccc2ccccc12 [Ch-450, tributylstannyl 2-(naphthalene-1-ylcarbamoyl)benzoate] | 98.5 ± 1.85 | 2.81 ± 0.34 | 97.4 ± 1.35 | 0.361 ± 0.017 | 28 ± 2.5 | 32 ± 1.13 | 0.195 ± 0.001 | 24.5 ± 1.63 | 26.34 ± 0.15 | 20.7 ± 0.43 | 32.12 ± 1.28 | Isolated lymphocytes % growth inhibition (isolated lymphocytes; 20 μg/mL): 11.7 ± 0.05ǂ %
4 | CCC[CH2][Sn]([CH2]CCC)([CH2]CCC)[O]C(=O)/C=C\C(=O)Nc1cccc(C)c1C [Ch-459, tributylstannyl (Z)-4-((2,3-dimethylphenyl)amino)-4-oxobut-2-enoate] | 96.5 ± 4.66 | 0.62 ± 0.005 | 97.9 ± 3.99 | 0.323 ± 0.002 | 30 ± 0.24 | 35 ± 0.99 | 0.391 ± 0.004 | 20.1 ± 0.59 | 22.7 ± 1.05 | 30.14 ± 1.47 | 25.5 ± 1.75 | Isolated lymphocytes IC50 (isolated lymphocytes): 5.78 ± 0.34ǂ μg/mL
5 | COc1cccc2c1C(=O)c1c(O)c3c(c(O)c1C2=O)C[C@@](O)(C(=O)CO)C[C@@H]3O[C@H]1C[C@H](N)[C@H](O)[C@H](C)O1 [Doxorubicin, reference compound] | – | – | – | – | – | – | – | – | – | – | – | inhibition at 20 µg/mL (HepG2 cell line; Homo sapiens, HepG2, 20 μg/mL, 72 h, read-out: HepG2 % growth inhibition): 97.2 ± 1.14%; IC50 (HepG2 cell line; Homo sapiens, HepG2, 72 h, 3-fold dilutions): 5.36 ± 0.75 µg/mL (≈ 9.86 µM)
6 | CC(C)CCCCCCCCC[C@@H]1CC(=O)N[C@@H](CCC(=O)O)C(=O)N[C@@H](CC(C)C)C(=O)N[C@H](CC(C)C)C(=O)N[C@@H](C(C)C)C(=O)N[C@@H](CC(=O)O)C(=O)N[C@H](CC(C)C)C(=O)N[C@@H](CC(C)C)C(=O)O1 [Surfactin, reference compound] (EL[dL]VD[dL]L; linker N-C via X1) | – | – | – | – | – | – | – | – | – | – | – | ZOI BZ (bald zone) (Streptomyces 85E; Surfactin positive control, printed 10 μg/mL): 23 ± 1.98 mm
7 | CC[C@]1(O)C[C@H]2CN(CCc3c([nH]c4ccccc34)[C@@](C(=O)OC)(c3cc4c(cc3OC)N(C=O)[C@H]3[C@@](O)(C(=O)OC)[C@H](OC(C)=O)[C@]5(CC)C=CCN6CC[C@]43[C@@H]65)C2)C1 [Vincristine, reference compound] | – | – | – | – | – | – | – | – | – | – | – | inhibition at 20 µg/mL (THP-1 cell line; Homo sapiens, THP-1, 20 μg/mL, read-out: THP-1 % growth inhibition): 100%; inhibition at 20 µg/mL (isolated lymphocytes; Homo sapiens, Lymphocyte, 20 μg/mL, read-out: Isolated lymphocytes % growth inhibition): 76.3 ± 3.65%; IC50 (isolated lymphocytes; Homo sapiens, Lymphocyte): 6.66 ± 0.09 µg/mL (≈ 8.07 µM)
